Measurements taken from patent US5593984A, “Cephalosporin derivatives” (Yuhan Corporation, priority 1992, dated 1997).
Values after ≈ are worked out from the molar mass of the structure shown. Like-named read-outs stand apart in the source and are kept apart here.

Assays:
B. subtilis ATCC 6633 = test: MIC by agar dilution, B. subtilis ATCC 6633; type: cell-based; conditions: Bacillus subtilis, ATCC6633, 17 h, read-out: Minimal Inhibitory Concentration (MIC)
Summary of the method: (§1)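 Two-fold dilutions of compound were dispersed in Mueller-Hinton agar, inoculated with test strain at 10^6 CFU per ml, and incubated at 35°-37° C. for 17±1 hours; MIC read from agar dilution.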

Staph. aureus ATCC 6538P = test: MIC by agar dilution, Staph. aureus ATCC 6538P; type: cell-based; conditions: Staphylococcus aureus, ATCC6538P, 17 h, read-out: Minimal Inhibitory Concentration (MIC)
Summary of the method: as §1

Staph. aureus Smith = test: MIC by agar dilution, Staph. aureus Smith; type: cell-based; conditions: Staphylococcus aureus, 17 h, Mueller-Hinton agar, read-out: Minimal Inhibitory Concentration (MIC)
Summary of the method: as §1

Staph. aureus C-57 = test: MIC by agar dilution, Staph. aureus C-57; type: cell-based; conditions: Staphylococcus aureus, C57, 17 h, Mueller-Hinton agar, read-out: Minimal Inhibitory Concentration (MIC)
Summary of the method: as §1

Staph. aureus C-5113 = test: MIC by agar dilution, Staph. aureus C-5113; type: cell-based; conditions: Staphylococcus aureus, C5113, 17 h, Mueller-Hinton agar, read-out: Minimal Inhibitory Concentration (MIC)
Summary of the method: as §1

Staph. aureus C-5216 = test: MIC by agar dilution, Staph. aureus C-5216; type: cell-based; conditions: Staphylococcus aureus, C5216, 17 h, Mueller-Hinton agar, read-out: Minimal Inhibitory Concentration (MIC)
Summary of the method: as §1

[1] = test system: S. epidermidis ATCC 12228; test: MIC by agar dilution, S. epidermidis ATCC 12228; type: cell-based; conditions: Staphylococcus epidermidis, ATCC12228, 17 h, read-out: Minimal Inhibitory Concentration (MIC)
Summary of the method: as §1

Ent. aerogenes IFO 12979 = test: MIC by agar dilution, Ent. aerogenes IFO 12979; type: cell-based; conditions: Klebsiella aerogenes, IFO12979, 17 h, Mueller-Hinton agar, read-out: Minimal Inhibitory Concentration (MIC)
Summary of the method: as §1

Ent. cloacae IFO 13535 = test: MIC by agar dilution, Ent. cloacae IFO 13535; type: cell-based; conditions: Enterobacter cloacae, IFO13535, 17 h, read-out: Minimal Inhibitory Concentration (MIC)
Summary of the method: as §1

E. coli NIHJ JC-2 = test: MIC by agar dilution, E. coli NIHJ JC-2; type: cell-based; conditions: Escherichia coli, NIHJJC2, 17 h, read-out: Minimal Inhibitory Concentration (MIC)
Summary of the method: as §1

E. coli No. 29 = test: MIC by agar dilution, E. coli No. 29; type: cell-based; conditions: Escherichia coli, read-out: Minimal Inhibitory Concentration (MIC)
Summary of the method: as §1

E. coli DY-1 = test: MIC by agar dilution, E. coli DY-1; type: cell-based; conditions: Escherichia coli, DY1, 17 h, read-out: Minimal Inhibitory Concentration (MIC)
Summary of the method: as §1

K. pneumoniae NCTC 9632 = test: MIC by agar dilution, K. pneumoniae NCTC 9632; type: cell-based; conditions: Klebsiella pneumoniae, NCTC9632, 17 h, read-out: Minimal Inhibitory Concentration (MIC)
Summary of the method: as §1

M. morganii DY-1 = test: MIC by agar dilution, M. morganii DY-1; type: cell-based; conditions: Morganella morganii, DY1, 17 h, read-out: Minimal Inhibitory Concentration (MIC)
Summary of the method: as §1

[2] = test system: Ps. aeruginosa ATCC 10145; test: MIC by agar dilution, Ps. aeruginosa ATCC 10145; type: cell-based; conditions: Pseudomonas aeruginosa, ATCC10145, 17 h, Mueller-Hinton agar, read-out: Minimal Inhibitory Concentration (MIC)
Summary of the method: as §1

[3] = test system: Ps. aeruginosa NCTC 10490; test: MIC by agar dilution, Ps. aeruginosa NCTC 10490; type: cell-based; conditions: Pseudomonas aeruginosa, NCTC10490, 17 h, Mueller-Hinton agar, read-out: Minimal Inhibitory Concentration (MIC)
Summary of the method: as §1

Ps. aeruginosa DY-2 = test: MIC by agar dilution, Ps. aeruginosa DY-2; type: cell-based; conditions: Pseudomonas aeruginosa, DY2, 17 h, read-out: Minimal Inhibitory Concentration (MIC)
Summary of the method: as §1

P. vulgaris NCTC 8313 = test: MIC by agar dilution, P. vulgaris NCTC 8313; type: cell-based; conditions: Proteus vulgaris, NCTC8313, 17 h, read-out: Minimal Inhibitory Concentration (MIC)
Summary of the method: as §1

Prov. stuartii IFO 12930 = test: MIC by agar dilution, Prov. stuartii IFO 12930; type: cell-based; conditions: Providencia stuartii, IFO12930, 17 h, Mueller-Hinton agar, read-out: Minimal Inhibitory Concentration (MIC)
Summary of the method: as §1

[4] = test system: Ser. marcescens IFO 12648; test: MIC by agar dilution, Ser. marcescens IFO 12648; type: cell-based; conditions: Serratia marcescens, IFO12648, 17 h, read-out: Minimal Inhibitory Concentration (MIC)
Summary of the method: as §1

[5] = test system: Gram-negative bacteria such as Pseudomonas aeruginosa; conditions: background art; cited from earlier work
[6] = test system: Gram-positive bacteria, in particular, Staphylococcus species; conditions: background art; cited from earlier work
[7] = B. subtilis ATCC 6633, agar dilution, Mueller-Hinton agar
[8] = Staph. aureus ATCC 6538P, agar dilution, Mueller-Hinton agar
[9] = S. epidermidis ATCC 12228, agar dilution, Mueller-Hinton agar
[10] = Ent. cloacae IFO 13535, agar dilution, Mueller-Hinton agar
[11] = E. coli NIHJ JC-2, agar dilution, Mueller-Hinton agar
[12] = 17 h, E. coli No. 29, agar dilution, Mueller-Hinton agar
[13] = E. coli DY-1, agar dilution, Mueller-Hinton agar
[14] = K. pneumoniae NCTC 9632, agar dilution, Mueller-Hinton agar
[15] = M. morganii DY-1, agar dilution, Mueller-Hinton agar
[16] = Ps. aeruginosa DY-2, agar dilution, Mueller-Hinton agar
[17] = P. vulgaris NCTC 8313, agar dilution, Mueller-Hinton agar
[18] = Ser. marcescens IFO 12648, agar dilution, Mueller-Hinton agar

Row | Structure (SMILES) | MIC (Staph. aureus Smith) | MIC (Staph. aureus C-57) | MIC (Staph. aureus C-5113) | MIC (Staph. aureus C-5216) | MIC (Ent. aerogenes IFO 12979) | MIC [2] | MIC [3] | MIC (Prov. stuartii IFO 12930) | antibacterial activities against Gram-negative bacteria such as Pseudomonas aeruginosa [5] | antibacterial activities against Gram-positive bacteria, in particular Staphylococcus species [6] | MIC (B. subtilis ATCC 6633; [7]) | MIC (Staph. aureus ATCC 6538P; [8]) | MIC [1, 9] | MIC (Ent. cloacae IFO 13535; [10]) | MIC (E. coli NIHJ JC-2; [11]) | MIC (E. coli No. 29; [12]) | MIC (E. coli DY-1; [13]) | MIC (K. pneumoniae NCTC 9632; [14]) | MIC (M. morganii DY-1; [15]) | MIC (Ps. aeruginosa DY-2; [16]) | other results
1 | CC(C)(O/N=C(\C(=O)N[C@@H]1C(=O)N2C(C(=O)[O-])=C(C[n+]3ccccc3)CS[C@H]12)c1csc(N)n1)C(=O)O [CAZ, Ceftazidime, reference compound] | 6.25 µg/mL (≈ 11.4 µM) | 100 µg/mL (≈ 183 µM) | 25 µg/mL (≈ 45.7 µM) | 25 µg/mL (≈ 45.7 µM) | 0.05 µg/mL (≈ 0.0915 µM) | 0.78 µg/mL (≈ 1.43 µM) | 0.1 µg/mL (≈ 0.183 µM) | 0.025 µg/mL (≈ 0.0457 µM) | superior antibacterial activities | relatively inferior antibacterial activities |  |  |  |  |  |  |  |  |  |  | MIC (B. subtilis ATCC 6633): 1.56 µg/mL (≈ 2.85 µM); MIC (Staph. aureus ATCC 6538P): 1.56 µg/mL (≈ 2.85 µM); MIC [1]: 0.78 µg/mL (≈ 1.43 µM); MIC (Ent. cloacae IFO 13535): 1.56 µg/mL (≈ 2.85 µM); MIC (E. coli NIHJ JC-2): 0.2 µg/mL (≈ 0.366 µM); MIC (E. coli No. 29; NO.29, 17 h): 0.1 µg/mL (≈ 0.183 µM); MIC (E. coli DY-1): 0.05 µg/mL (≈ 0.0915 µM); MIC (K. pneumoniae NCTC 9632): 0.05 µg/mL (≈ 0.0915 µM); MIC (M. morganii DY-1): 0.1 µg/mL (≈ 0.183 µM); MIC (Ps. aeruginosa DY-2): 1.56 µg/mL (≈ 2.85 µM); MIC (P. vulgaris NCTC 8313): 0.025 µg/mL (≈ 0.0457 µM); MIC [4]: 0.025 µg/mL (≈ 0.0457 µM)
2 | CO/N=C(\C(=O)N[C@@H]1C(=O)N2C(C(=O)O)=C(COC(C)=O)CS[C@H]12)c1csc(N)n1 [CTX, Cefotaxime, reference compound] | 1.56 µg/mL (≈ 3.43 µM) | 100 µg/mL (≈ 220 µM) | 3.13 µg/mL (≈ 6.87 µM) | 1.56 µg/mL (≈ 3.43 µM) | 0.025 µg/mL (≈ 0.0549 µM) | 6.25 µg/mL (≈ 13.7 µM) | 0.78 µg/mL (≈ 1.71 µM) | ≤ 0.006 µg/mL | less effective antibacterial activities | have antibacterial activities against Staphylococcus species | 0.1 µg/mL (≈ 0.22 µM) | 0.78 µg/mL (≈ 1.71 µM) | 0.1 µg/mL (≈ 0.22 µM) | 0.78 µg/mL (≈ 1.71 µM) | 0.05 µg/mL (≈ 0.11 µM) | ≤ 0.006 µg/mL | ≤ 0.006 µg/mL | 0.025 µg/mL (≈ 0.0549 µM) | 0.025 µg/mL (≈ 0.0549 µM) | 12.5 µg/mL (≈ 27.4 µM) | MIC (P. vulgaris NCTC 8313; [17]): ≤ 0.006 µg/mL; MIC [4, 18]: 0.05 µg/mL (≈ 0.11 µM)
3 | CO/N=C(\C(=O)N[C@@H]1C(=O)N2C(C(=O)[O-])=C(C[n+]3ccn4cccc4c3C)CS[C@H]12)c1nc(N)sc1Cl [Ex. 56, 7-β-[(Z)-2-(2-amino-5-chlorothiazol-4-yl)-2-methoxyiminoacetamido]-3-(1-methylpyrrolo[1,2-a]-pyrazinium-2-yl)methyl-3-cephem-4-carboxylate] | 0.39 µg/mL (≈ 0.694 µM) | 3.13 µg/mL (≈ 5.57 µM) | 0.78 µg/mL (≈ 1.39 µM) | 0.78 µg/mL (≈ 1.39 µM) | 0.1 µg/mL (≈ 0.178 µM) | 1.56 µg/mL (≈ 2.78 µM) | 0.78 µg/mL (≈ 1.39 µM) | 0.012 µg/mL (≈ 0.0214 µM) |  |  | 0.2 µg/mL (≈ 0.356 µM) | 0.05 µg/mL (≈ 0.089 µM) | 0.1 µg/mL (≈ 0.178 µM) | 0.78 µg/mL (≈ 1.39 µM) | 0.2 µg/mL (≈ 0.356 µM) | 0.05 µg/mL (≈ 0.089 µM) | 0.05 µg/mL (≈ 0.089 µM) | 0.1 µg/mL (≈ 0.178 µM) | 0.39 µg/mL (≈ 0.694 µM) | 3.13 µg/mL (≈ 5.57 µM) | MIC (P. vulgaris NCTC 8313; [17]): 0.012 µg/mL (≈ 0.0214 µM); MIC [4, 18]: 0.2 µg/mL (≈ 0.356 µM)
